Data as given in US9192662B2, “Methods using immunomodulatory compounds for modulating level of CD59” (Celgene Corporation, priority 2008, dated 2015).

Legend:
[1] = test system: CD59 mRNA; assay: CD59 mRNA levels in several in vitro cellular models in Affymetrix gene array experiments; assay type: cell-based; conditions: primary T cells, primary monocytes, NK cells, cultured PBMCs from normal and CLL patients, Namalwa Burkitt's lymphoma cell line
From the text: In certain embodiments, the immunomodulatory compounds provided herein, such as 3-(4-amino-1-oxo-1,3-dihydro-isoindol-2-yl-piperidine-2,6-dione (lenalidomide), 4-amino-2-(2,6-dioxopiperidin-3-yl)isoindoline-1,3-dione or N-{[2-(2,6-dioxo(3-piperidyl)-1,3-dioxoisoindolin-4-yl]methyl}cyclopropyl-carboxamide, induce increase in the mRNA levels of CD59 in several in vitro cellular models in Affymetrix gene array experiments (both primary cells and cell lines). In certain aspects, this increase is found in primary T cells, primary monocytes, NK cells, cultured PBMCs from normal and CLL patients, and the Namalwa Burkitt's lymphoma cell line.
Namalwa cells are cultured in RPM1 supplemented with 10% fetal bovine serum. Cells are treated with vehicle control (0.1% DMSO) or 4-amino-2-(2,6-dioxopiperidin-3-yl)isoindoline-1,3-dione (10 μM) or lenalidomide (10 μM) for 8 hours and 24 hours. Cells are harvested and RNA isolated as described above. Methods for Affymetrix gene array analysis are as described above.
PBMCs are isolated from whole blood from CLL patients (MD Anderson) using ficoll gradient centrifugation. Cells are treated with 4-amino-2-(2,6-dioxopiperidin-3-yl)isoindoline-1,3-dione (1 μM), lenalidomide (10 μM) or N-{[2-(2,6-dioxo(3-piperidyl)-1,3-dioxoisoindolin-4-yl]methyl}cyclopropyl-carboxamide (10 μM) for 24 and 48 hours. Samples from five CLL patients are analyzed individually. Cells are harvested and RNA isolated as described above. Methods for Affymetrix gene array analysis are as described above.

[2] = test system: CD59 mRNA; assay: CD59 mRNA levels in unstimulated monocytes (Affymetrix gene array); assay type: cell-based, Human; conditions: CD14+ monocytes from healthy volunteers, after treatment with 10 nM or more, FIG. 2
Procedure: Human PBMCs were isolated from buffy coat from three healthy volunteers using ficoll gradient centrifugation. CD14+ monocytes were isolated from each batch of PBMCs using anti-CD14 microbeads (Miltenyi). Cells were treated with 0.1% DMSO or 4-amino-2-(2,6-dioxopiperidin-3-yl)isoindoline-1,3-dione (1 μM) 1 or lenalidomide (10 μM) for 30 minutes. Thereafter the cells were either left unstimulated or stimulated with 100 ng/ml LPS and incubated for 6 hours. After the incubation period the cells were lysed in TRI reagent (Sigma) for RNA isolation. The RNAs isolated using the TRI reagent RNA isolation protocol, were column cleaned (Qiagen) and the RNAs kept separate from the donors, were pooled for cDNA synthesis. Briefly, double-stranded cDNA will be synthesized using 2-5 μg of total RNA. Biotin-labeled cRNA will be synthesized using MessageAmp aRNA kit (Ambion), 15 μg of cRNA fragmented and hybridized to each Affymetrix human UI 33A array. The above procedures will be done twice for each RNA sample to obtain replicate biotin-labeled probes. Data analysis was performed using GeneSpring (Agilent).

[3] = test system: CD59 mRNA; assay: CD59 mRNA levels in PBMCs (Affymetrix gene array); assay type: cell-based, Human; conditions: PBMCs from healthy volunteers; 24, 48 and 72 hours; lenalidomide 10 μM, CC-4047 1 μM; FIG. 1
Procedure: Human PBMCs were isolated from buffy coat from healthy volunteers using ficoll gradient centrifugation. PBMCs were treated with 4-amino-2-(2,6-dioxopiperidin-3-yl)isoindoline-1,3-dione (1 μM) or lenalidomide (10 μM) or vehicle control (0.1% DMSO) for 24 hours, 48 hours, and 72 hours. Cells were harvested and RNA isolated as above. Methods for Affymetrix gene array analysis were as described above.

[4] = test system: CD59 mRNA; assay: CD59 mRNA levels in alpha-CD3/CD28 stimulated T cells (Affymetrix gene array); assay type: cell-based, Human; conditions: CD4+ T cells, anti-CD3/anti-CD28 stimulation; 3, 6, 12 and 24 hours; lenalidomide 10 μM, CC-4047 1 μM; FIG. 3
Procedure: Human PBMCs were isolated from buffy coat from four healthy volunteers using ficoll gradient centrifugation CD4+ T cells were isolated from each batch of PBMCs using anti-CD4 microbeads (Miltenyi). Cells were treated with 0.1% DMSO or 4-amino-2-(2,6-dioxopiperidin-3-yl)isoindoline-1,3-dione (1 μM) 1 or lenalidomide (10 μM) in the presence or absence of anti-CD3/anti-CD28 stimulation over a time course which included 3, 6, 12 and 24 hours of treatment. Cells were harvested at indicated times and RNA isolated as described above. Methods for Affymetrix gene array analysis were as described above.

Nc1cccc2c1C(=O)N(C1CCC(=O)NC1=O)C2=O (stereo not drawn) [CC-4047, 4-amino-2-(2,6-dioxopiperidin-3-yl)isoindoline-1,3-dione]
increase: mRNA levels of CD59 in several in vitro cellular models [1] | CD59 mRNA levels in unstimulated monocytes [2] | CD59 mRNA levels in PBMC cells [3] | CD59 mRNA levels in α-cd3/cd28 stimulated T cells [4]

O=C1CCC(N2C(=O)c3cccc(CNC(=O)C4CC4)c3C2=O)C(=O)N1 (stereo not drawn) [N-{[2-(2,6-dioxo(3-piperidyl)-1,3-dioxoisoindolin-4-yl]methyl}cyclopropyl-carboxamide]
increase: mRNA levels of CD59 in several in vitro cellular models [1]

Nc1cccc2c1CN(C1CCC(=O)NC1=O)C2=O (stereo not drawn) [lenalidomide, 3-(4-amino-1-oxo-1,3-dihydro-isoindol-2-yl)-piperidine-2,6-dione]
increase: mRNA levels of CD59 in several in vitro cellular models [1] | CD59 mRNA levels in unstimulated monocytes [2] | CD59 mRNA levels in PBMC cells [3] | CD59 mRNA levels in α-cd3/cd28 stimulated T cells [4]
